In article PMC9668969 (Nature Communications, 2022):
Several values for one entry are separate records, joined by “and”; a condition that tells them apart may be missing. Equal entries are not always repeated. Where two headings read alike, the source gives them in different places.

System: WT ELIC
Assay: Fluorescence stopped-flow liposomal Tl+ flux assay, symmetric liposomes
Type: biochemical, Erwinia chrysanthemi
Design: Tl+ flux quenching rate, Avg. / Tl+ flux quenching rate: unit not given here
Settings: for time constant of activation by Tl+ flux: 10 mM propylamine; for EC50: read-out: EC50 of peak Tl+ flux rate; for Rate (stopped-flow fluorescence quenching rate) / Avg (stopped-flow fluorescence quenching rate): WT in 2:1:1 PC:PE:PG liposomes; for Rate (stopped-flow fluorescence quenching rate): single experiments; for Avg (stopped-flow fluorescence quenching rate): average of experiments
Method: The fluorescence sequential-mixing stopped-flow liposomal flux measurements were carried using an SX20 stopped-flow spectrofluorometer (Applied Photophysics) and Pro-Data SX software[13],[30]. 7.5 mg of the respective lipid mixture (POPC, 1:1 POPC: POPE, 1:1 POPC:POPG, 3:1 POPC:POPE, 3:1 POPC:POPG, 2:1:1 POPC:POPE:POPG) was dried in a glass vial to a thin film under a constant stream of N2. The lipids were then further dried under vacuum in a desiccator overnight. The following day the lipids were hydrated in 500 µl of reconstitution buffer (100 mM NaNO3, 10 mM HEPES, pH 7) (Buffer R), 250 µl of 75 mM 8-Aminonaphthalene-1,3,6-Trisulfonic Acid (ANTS, ThermoFisher Scientific) in buffer R, and doped with ~18 mg of CHAPS (Anatrace). The mixture was vortexed and then sonicated with heat until completely solubilized. Following the sonication, the solution was brought to RT then 3.5 µl of 6.7 mg/ml ELIC in Buffer A with 0.02% DDM was added (3 µg per mg of lipid). This combined solution was incubated at RT for 30 min, followed by the addition of 1 ml of 1:1 v/v SM-2 BioBeads in Buffer R and an additional 250 µl of 75 mM ANTS in Buffer R. This mixture was incubated at RT for 2.5 hr with gentle mixing. The liposome suspension was then extruded with an Avanti mini-extruder and 0.1 µm membrane (30×). The extruded liposomes were stored at 13 °C overnight with gentle rotation. The next day, the liposomes were diluted to 2.5 mL using assay buffer (140 mM NaNO3, 10 mM HEPES, pH 7) (Stopped-flow Buffer A), loaded into a PD-10 desalting column (Cytiva), eluted with 3 mL of Stopped-flow Buffer A and subsequently diluted 5-fold with Stopped-flow Buffer A.
Using propylamine as the agonist, the assay and analysis was carried out as previously described[13],[30]. ELIC-containing liposomes were first mixed 1:1 with Buffer A containing 2× the concentration of propylamine. After a variable delay of 10 ms to 25 s, the sample was then mixed 1:1 with a quenching buffer (90 mM NaNO3, 50 mM TlNO3, 10 mM HEPES, pH 7), and ANTS fluorescence (ex. 360 nm, fluorescence above 420 nm) was recorded for 1 s. For each delay time, 5 repeat measurements were obtained. The data were collected using Applied Photophysics Pro-Data SX software. The fluorescence quenching traces were fit to a stretched exponential (Eq. 2a) and the rate of Tl^+ influx was determined at 2 ms (Eq. 2b).2a Ft=F∞+F0−F∞⋅e^−t/τ^β 2b kt=β/τ⋅2ms/τ^(β−1) where Ft, F∞, F0 are the fluorescence at time t, final fluorescence and initial fluorescence. τ is the time constant, β the stretched exponential factor, and kt the calculated rate of Tl^+ influx at 2 ms. The time course of desensitization was also fit to a double exponential and a weighted time constant was calculated as was done for the patch-clamp data using Origin 2019b. All replicates were taken from independent samples.

CCCN [propylamine]
time constant of activation by Tl+ flux (2:1:1 liposomes): 41 ± 34 ms | time constant of activation by Tl+ flux (POPC liposomes): 20 ± 6 ms | EC50 (2:1:1 POPC:POPE:POPG liposomes, no BaCl2, Hill fit): 2400 µM and ~2000 µM | Hill n of peak Tl+ flux dose response (2:1:1 liposomes): 2.2 ± 0.7 | Hill n of peak Tl+ flux dose response (POPC liposomes): 3.6 ± 0.6 | EC50 (POPC liposomes, Hill fit): 4300 ± 1400 µM | Tl+ flux quenching rate, Avg. (WT 1:1 PC:PE 10 mM PA, delay 0.01 s): 12.8731 | Tl+ flux quenching rate, Avg. (WT 1:1 PC:PE 10 mM PA, delay 0.025 s): 18.7932 | Tl+ flux quenching rate, Avg. (WT 1:1 PC:PE 10 mM PA, delay 0.05 s): 16.1105 | Tl+ flux quenching rate, Avg. (WT 1:1 PC:PE 10 mM PA, delay 0.1 s): 21.9541 | Tl+ flux quenching rate, Avg. (WT 1:1 PC:PE 10 mM PA, delay 0.25 s): 19.0107 | Tl+ flux quenching rate, Avg. (WT 1:1 PC:PE 10 mM PA, delay 0.5 s): 18.8714 | Tl+ flux quenching rate, Avg. (WT 1:1 PC:PE 10 mM PA, delay 1 s): 13.7475 | Tl+ flux quenching rate, Avg. (WT 1:1 PC:PE 10 mM PA, delay 2.5 s): 11.8878 | Tl+ flux quenching rate, Avg. (WT 1:1 PC:PE 10 mM PA, delay 5 s): 9.713 | Tl+ flux quenching rate, Avg. (WT 1:1 PC:PE 10 mM PA, delay 10 s): 6.252 | Tl+ flux quenching rate, Avg. (WT 1:1 PC:PE 10 mM PA, delay 25 s): 0.8964 | Tl+ flux quenching rate, Avg. (WT 1:1 PC:PG 10 mM PA, delay 0.01 s): 3.795 | Tl+ flux quenching rate, Avg. (WT 1:1 PC:PG 10 mM PA, delay 0.025 s): 9.924 | Tl+ flux quenching rate, Avg. (WT 1:1 PC:PG 10 mM PA, delay 0.05 s): 11.1292 | Tl+ flux quenching rate, Avg. (WT 1:1 PC:PG 10 mM PA, delay 0.1 s): 12.6513 | Tl+ flux quenching rate, Avg. (WT 1:1 PC:PG 10 mM PA, delay 0.25 s): 13.2242 | Tl+ flux quenching rate, Avg. (WT 1:1 PC:PG 10 mM PA, delay 0.5 s): 14.1908 | Tl+ flux quenching rate, Avg. (WT 1:1 PC:PG 10 mM PA, delay 1 s): 14.7233 | Tl+ flux quenching rate, Avg. (WT 1:1 PC:PG 10 mM PA, delay 2.5 s): 12.796 | Tl+ flux quenching rate, Avg. (WT 1:1 PC:PG 10 mM PA, delay 5 s): 11.2973 | Tl+ flux quenching rate, Avg. (WT 1:1 PC:PG 10 mM PA, delay 10 s): 8.515 | Tl+ flux quenching rate, Avg. (WT 1:1 PC:PG 10 mM PA, delay 25 s): 1.356 | Tl+ flux quenching rate, Avg. (WT 2:1:1 PC:PE:PG 10 mM PA, delay 0.01 s): 108.066 | Tl+ flux quenching rate, Avg. (WT 2:1:1 PC:PE:PG 10 mM PA, delay 0.025 s): 129.134 | Tl+ flux quenching rate, Avg. (WT 2:1:1 PC:PE:PG 10 mM PA, delay 0.05 s): 140.06 | Tl+ flux quenching rate, Avg. (WT 2:1:1 PC:PE:PG 10 mM PA, delay 0.1 s): 141.696 | Tl+ flux quenching rate, Avg. (WT 2:1:1 PC:PE:PG 10 mM PA, delay 0.25 s): 158.52 | Tl+ flux quenching rate, Avg. (WT 2:1:1 PC:PE:PG 10 mM PA, delay 0.5 s): 169.325 | Tl+ flux quenching rate, Avg. (WT 2:1:1 PC:PE:PG 10 mM PA, delay 1 s): 150.743 | Tl+ flux quenching rate, Avg. (WT 2:1:1 PC:PE:PG 10 mM PA, delay 2.5 s): 114.107 | Tl+ flux quenching rate, Avg. (WT 2:1:1 PC:PE:PG 10 mM PA, delay 5 s): 89.8389 | Tl+ flux quenching rate, Avg. (WT 2:1:1 PC:PE:PG 10 mM PA, delay 10 s): 66.5759 | Tl+ flux quenching rate, Avg. (WT 2:1:1 PC:PE:PG 10 mM PA, delay 25 s): 19.0264 | Tl+ flux quenching rate, Avg. (WT 3:1 PC:PE 10 mM PA, delay 0.01 s): 13.3934 | Tl+ flux quenching rate, Avg. (WT 3:1 PC:PE 10 mM PA, delay 0.025 s): 16.8702 | Tl+ flux quenching rate, Avg. (WT 3:1 PC:PE 10 mM PA, delay 0.05 s): 17.8262 | Tl+ flux quenching rate, Avg. (WT 3:1 PC:PE 10 mM PA, delay 0.1 s): 25.5678 | Tl+ flux quenching rate, Avg. (WT 3:1 PC:PE 10 mM PA, delay 0.25 s): 25.5466 | Tl+ flux quenching rate, Avg. (WT 3:1 PC:PE 10 mM PA, delay 0.5 s): 29.8205 | Tl+ flux quenching rate, Avg. (WT 3:1 PC:PE 10 mM PA, delay 1 s): 23.2733 | Tl+ flux quenching rate, Avg. (WT 3:1 PC:PE 10 mM PA, delay 2.5 s): 17.3881 | Tl+ flux quenching rate, Avg. (WT 3:1 PC:PE 10 mM PA, delay 5 s): 8.6052 | Tl+ flux quenching rate, Avg. (WT 3:1 PC:PE 10 mM PA, delay 10 s): 3.015 | Tl+ flux quenching rate, Avg. (WT 3:1 PC:PE 10 mM PA, delay 25 s): 0.5341 | Tl+ flux quenching rate, Avg. (WT 3:1 PC:PG 10 mM PA, delay 0.01 s): 3.538 | Tl+ flux quenching rate, Avg. (WT 3:1 PC:PG 10 mM PA, delay 0.025 s): 5.637 | Tl+ flux quenching rate, Avg. (WT 3:1 PC:PG 10 mM PA, delay 0.05 s): 6.577 | Tl+ flux quenching rate, Avg. (WT 3:1 PC:PG 10 mM PA, delay 0.1 s): 5.156 | Tl+ flux quenching rate, Avg. (WT 3:1 PC:PG 10 mM PA, delay 0.25 s): 10.2935 | Tl+ flux quenching rate, Avg. (WT 3:1 PC:PG 10 mM PA, delay 0.5 s): 10.5897 | Tl+ flux quenching rate, Avg. (WT 3:1 PC:PG 10 mM PA, delay 1 s): 10.9346 | Tl+ flux quenching rate, Avg. (WT 3:1 PC:PG 10 mM PA, delay 2.5 s): 9.589 | Tl+ flux quenching rate, Avg. (WT 3:1 PC:PG 10 mM PA, delay 5 s): 8.149 | Tl+ flux quenching rate, Avg. (WT 3:1 PC:PG 10 mM PA, delay 10 s): 1.496 | Tl+ flux quenching rate, Avg. (WT 3:1 PC:PG 10 mM PA, delay 25 s): 1.028 | Tl+ flux quenching rate, Avg. (WT PC 10 mM PA, delay 0.01 s): 3.242 | Tl+ flux quenching rate, Avg. (WT PC 10 mM PA, delay 0.025 s): 7.793 | Tl+ flux quenching rate, Avg. (WT PC 10 mM PA, delay 0.05 s): 10.0904 | Tl+ flux quenching rate, Avg. (WT PC 10 mM PA, delay 0.1 s): 10.8806 | Tl+ flux quenching rate, Avg. (WT PC 10 mM PA, delay 0.25 s): 11.6946 | Tl+ flux quenching rate, Avg. (WT PC 10 mM PA, delay 1 s): 9.9293 | Tl+ flux quenching rate, Avg. (WT PC 10 mM PA, delay 2.5 s): 4.516 | Tl+ flux quenching rate, Avg. (WT PC 10 mM PA, delay 5 s): 0.8684 | Tl+ flux quenching rate, Avg. (WT PC 10 mM PA, delay 10 s): 0.09487 | Tl+ flux quenching rate, Avg. (WT PC 10 mM PA, delay 25 s): 0.1384 | Tl+ flux quenching rate, Avg. (WT PC 10 mM PA, delay printed 0.05 (line r87, between 0.25 and 1)): 13.718 | Rate (stopped-flow fluorescence quenching rate) (0.3 mM PA, delay time 0): 0 | Avg (stopped-flow fluorescence quenching rate) (0.3 mM PA, delay time 0.025): 0.05393 | Avg (stopped-flow fluorescence quenching rate) (0.3 mM PA, delay time 0.05): 0.1144 | Avg (stopped-flow fluorescence quenching rate) (0.3 mM PA, delay time 0.1): 0.02985 | Rate (stopped-flow fluorescence quenching rate) (0.3 mM PA, delay time 0.1, listed as PA): 0.02819 and 0.02444 and 0.03693 | Avg (stopped-flow fluorescence quenching rate) (0.3 mM PA, delay time 0.25): 0.2226 | Avg (stopped-flow fluorescence quenching rate) (0.3 mM PA, delay time 0.5): 0.07829 | Rate (stopped-flow fluorescence quenching rate) (0.3 mM PA, delay time 0.5, listed as PA): 0.05209 and 0.08034 and 0.1024 | Avg (stopped-flow fluorescence quenching rate) (0.3 mM PA, delay time 1): 0.1269 | Avg (stopped-flow fluorescence quenching rate) (0.3 mM PA, delay time 2.5): 0.07966 | Avg (stopped-flow fluorescence quenching rate) (0.3 mM PA, delay time 5): 0.1012 | Avg (stopped-flow fluorescence quenching rate) (0.3 mM PA, delay time 10): 0.07302 | Avg (stopped-flow fluorescence quenching rate) (0.3 mM PA, delay time 25): 0.144 | Rate (stopped-flow fluorescence quenching rate) (0.3 mM PA, delay time 25, listed as PA): 0.1101 and 0.1736 and 0.1484 | Rate (stopped-flow fluorescence quenching rate) (1 mM PA, delay time 0): 0 | Avg (stopped-flow fluorescence quenching rate) (1 mM PA, delay time 0.025): 0.05821 | Avg (stopped-flow fluorescence quenching rate) (1 mM PA, delay time 0.05): 0.3418 | Avg (stopped-flow fluorescence quenching rate) (1 mM PA, delay time 0.1): 0.7543 | Avg (stopped-flow fluorescence quenching rate) (1 mM PA, delay time 0.25): 9.601 | Avg (stopped-flow fluorescence quenching rate) (1 mM PA, delay time 0.5): 9.433 | Avg (stopped-flow fluorescence quenching rate) (1 mM PA, delay time 1): 13.1765 | Avg (stopped-flow fluorescence quenching rate) (1 mM PA, delay time 2.5): 13.927 | Avg (stopped-flow fluorescence quenching rate) (1 mM PA, delay time 5): 16.0207 | Avg (stopped-flow fluorescence quenching rate) (1 mM PA, delay time 10): 13.7137 | Avg (stopped-flow fluorescence quenching rate) (1 mM PA, delay time 25): 8.387 | Rate (stopped-flow fluorescence quenching rate) (3 mM PA, delay time 0): 0 | Avg (stopped-flow fluorescence quenching rate) (3 mM PA, delay time 0.05): 279.785 | Avg (stopped-flow fluorescence quenching rate) (3 mM PA, delay time 0.1): 279.666 | Avg (stopped-flow fluorescence quenching rate) (3 mM PA, delay time 0.25): 300.719 | Avg (stopped-flow fluorescence quenching rate) (3 mM PA, delay time 0.5): 352.59 | Avg (stopped-flow fluorescence quenching rate) (3 mM PA, delay time 1): 284.973 | Avg (stopped-flow fluorescence quenching rate) (3 mM PA, delay time 2.5): 176.344
